Source: ChEMBL document CHEMBL1137802, “Specific antioxidant activity of caffeoyl derivatives and other natural phenolic compounds: LDL protection against oxidation and decrease in the proinflammatory lysophosphatidylcholine production” (J Nat Prod, 2001)

How the values were obtained:
Assay type in all cases: functional, cell-free
[1] = Antioxidant activity against Cu2+-induced lipid peroxidation in human plasma LDL assessed as maximal compound concentration at 5 umol/L preincubated for 1 hr before Cu2+ challenge measured after 15 mins relative to compound present at 0 min
[2] = Antioxidant activity against Cu2+-induced lipid peroxidation in human plasma LDL assessed as conjugated diene formation at 20 umol/L preincubated for 1 hr before Cu2+ challenge measured after 360 mins
[3] = Antioxidant activity against Cu2+-induced lipid peroxidation in human plasma LDL assessed as vitamin E consumption at 20 umol/L preincubated for 1 hr before Cu2+ challenge measured after 180 mins
[4] = Antioxidant activity against Cu2+-induced lipid peroxidation in human plasma LDL assessed as vitamin E consumption at 20 umol/L preincubated for 1 hr before Cu2+ challenge measured after 60 mins
[5] = Antioxidant activity against Cu2+-induced lipid peroxidation in human plasma LDL assessed as lysophosphatidylcholine formation at 20 umol/L preincubated for 1 hr before Cu2+ challenge measured after 60 mins
[6] = Antioxidant activity against Cu2+-induced lipid peroxidation in human plasma LDL assessed as lysophosphatidylcholine formation at 10 umol/L preincubated for 1 hr before Cu2+ challenge measured after 210 mins
[7] = Antioxidant activity against Cu2+-induced lipid peroxidation in human plasma LDL assessed as lysophosphatidylcholine formation at 5 umol/L preincubated for 1 hr before Cu2+ challenge measured after 210 mins
[8] = Antioxidant activity against Cu2+-induced lipid peroxidation in human plasma LDL assessed as lysophosphatidylcholine formation at 5 umol/L preincubated for 1 hr before Cu2+ challenge measured after 270 mins
[9] = Antioxidant activity against Cu2+-induced lipid peroxidation in human plasma LDL assessed as maximal compound concentration at 20 umol/L preincubated for 1 hr before Cu2+ challenge measured after 45 mins relative to compound present at 0 min
[10] = Antioxidant activity against Cu2+-induced lipid peroxidation in human plasma LDL assessed as maximal compound concentration at 5 umol/L preincubated for 1 hr before Cu2+ challenge measured after 120 mins relative to compound present at 0 min
[11] = Antioxidant activity against Cu2+-induced lipid peroxidation in human plasma LDL assessed as maximal compound concentration at 5 umol/L preincubated for 1 hr before Cu2+ challenge measured after 150 mins relative to compound present at 0 min
[12] = Antioxidant activity against Cu2+-induced lipid peroxidation in human plasma LDL assessed as lysophosphatidylcholine formation at 5 umol/L preincubated for 1 hr before Cu2+ challenge measured after 180 mins
[13] = Antioxidant activity against Cu2+-induced lipid peroxidation in human plasma LDL assessed as lysophosphatidylcholine formation at 20 umol/L preincubated for 1 hr before Cu2+ challenge measured after 150 mins
[14] = Antioxidant activity against Cu2+-induced lipid peroxidation in human plasma LDL assessed as maximal compound concentration at 10 umol/L preincubated for 1 hr before Cu2+ challenge measured after 150 mins relative to compound present at 0 min
[15] = Antioxidant activity against Cu2+-induced lipid peroxidation in human plasma LDL assessed as conjugated diene formation at 20 umol/L preincubated for 1 hr before Cu2+ challenge measured after 120 mins
[16] = Antioxidant activity against Cu2+-induced lipid peroxidation in human plasma LDL assessed as lysophosphatidylcholine formation at 10 umol/L preincubated for 1 hr before Cu2+ challenge measured after 90 mins
[17] = Antioxidant activity against Cu2+-induced lipid peroxidation in human plasma LDL assessed as vitamin E consumption at 5 umol/L preincubated for 1 hr before Cu2+ challenge measured after 180 mins
[18] = Antioxidant activity against Cu2+-induced lipid peroxidation in human plasma LDL assessed as conjugated diene formation at 20 umol/L preincubated for 1 hr before Cu2+ challenge measured after 180 mins
[19] = Antioxidant activity against Cu2+-induced lipid peroxidation in human plasma LDL assessed as maximal compound concentration at 20 umol/L preincubated for 1 hr before Cu2+ challenge measured after 90 mins relative to compound present at 0 min
[20] = Antioxidant activity against Cu2+-induced lipid peroxidation in human plasma LDL assessed as maximal compound concentration at 5 umol/L preincubated for 1 hr before Cu2+ challenge measured after 270 mins relative to compound present at 0 min
[21] = Antioxidant activity against Cu2+-induced lipid peroxidation in human plasma LDL assessed as conjugated diene formation at 20 umol/L preincubated for 1 hr before Cu2+ challenge measured after 270 mins
[22] = Antioxidant activity against Cu2+-induced lipid peroxidation in human plasma LDL assessed as maximal compound concentration at 5 umol/L preincubated for 1 hr before Cu2+ challenge measured after 30 mins relative to compound present at 0 min
[23] = Antioxidant activity against Cu2+-induced lipid peroxidation in human plasma LDL assessed as maximal compound concentration at 10 umol/L preincubated for 1 hr before Cu2+ challenge measured after 180 mins relative to compound present at 0 min
[24] = Antioxidant activity against Cu2+-induced lipid peroxidation in human plasma LDL assessed as conjugated diene formation at 5 umol/L preincubated for 1 hr before Cu2+ challenge measured after 180 mins
[25] = Antioxidant activity against Cu2+-induced lipid peroxidation in human plasma LDL assessed as maximal compound concentration at 10 umol/L preincubated for 1 hr before Cu2+ challenge measured after 90 mins relative to compound present at 0 min
[26] = Antioxidant activity against Cu2+-induced lipid peroxidation in human plasma LDL assessed as vitamin E consumption at 5 umol/L preincubated for 1 hr before Cu2+ challenge measured after 210 mins
[27] = Antioxidant activity against Cu2+-induced lipid peroxidation in human plasma LDL assessed as conjugated diene formation at 5 umol/L preincubated for 1 hr before Cu2+ challenge measured after 90 mins
[28] = Antioxidant activity against Cu2+-induced lipid peroxidation in human plasma LDL assessed as conjugated diene formation at 20 umol/L preincubated for 1 hr before Cu2+ challenge measured after 90 mins
[29] = Antioxidant activity against Cu2+-induced lipid peroxidation in human plasma LDL assessed as vitamin E consumption at 10 umol/L preincubated for 1 hr before Cu2+ challenge measured after 90 mins
[30] = Antioxidant activity against Cu2+-induced lipid peroxidation in human plasma LDL assessed as lysophosphatidylcholine formation at 5 umol/L preincubated for 1 hr before Cu2+ challenge measured after 120 mins
[31] = Antioxidant activity against Cu2+-induced lipid peroxidation in human plasma LDL assessed as maximal compound concentration at 10 umol/L preincubated for 1 hr before Cu2+ challenge measured after 45 mins relative to compound present at 0 min
[32] = Antioxidant activity against Cu2+-induced lipid peroxidation in human plasma LDL assessed as conjugated diene formation preincubated for 1 hr before Cu2+ challenge
[33] = Antioxidant activity against Cu2+-induced lipid peroxidation in human plasma LDL assessed as lysophosphatidylcholine formation at 20 umol/L preincubated for 1 hr before Cu2+ challenge measured after 90 mins
[34] = Antioxidant activity against Cu2+-induced lipid peroxidation in human plasma LDL assessed as vitamin E consumption at 10 umol/L preincubated for 1 hr before Cu2+ challenge measured after 60 mins

CC(C)(Sc1cc(C(C)(C)C)c(O)c(C(C)(C)C)c1)Sc1cc(C(C)(C)C)c(O)c(C(C)(C)C)c1
Activity [1]: 96% | Activity [2]: 2.3% | Activity [3]: 0% | Activity [4]: 5.5% | Activity [5]: 1.2% | Activity [6]: 9.1% | Activity [7]: 23.1% | Activity [8]: 26.1% | Activity [9]: 87.7% | Activity [10]: 56.5% | Activity [11]: 28.6% | Activity [12]: 19.4% | Activity [13]: 1.3% | Activity [14]: 19.8% | Activity [15]: 0.2% | Activity [16]: 0% | Activity [17]: 0% | Activity [18]: 2.6% | Activity [19]: 44.1% | Activity [20]: 22.5% | Activity [21]: 2.6% | Activity [22]: 94.8% | Activity [23]: 31.2% | Activity [24]: 79.5% | Activity [25]: 27.2% | Activity [26]: 0% | Activity [27]: 37.9% | Activity [28]: 0.7% | Activity [29]: 0% | Activity [30]: 10.6% | Activity [31]: 73% | Activity [32]: Dose-dependent effect | Activity [33]: 1.1% | Activity [34]: 0%
